PMC10246433 (Bioorganic & medicinal chemistry letters, 2023)
Entries after “also recorded” stand apart in the source; their conditions may differ.

Legend:
hNek2 kinase = target: T1, hNek2 kinase (Homo sapiens, UniProt P51955); experiment: ADP-Glo kinase assay, recombinant hNek2; type: biochemical
T1 sequence (P51955 1-445): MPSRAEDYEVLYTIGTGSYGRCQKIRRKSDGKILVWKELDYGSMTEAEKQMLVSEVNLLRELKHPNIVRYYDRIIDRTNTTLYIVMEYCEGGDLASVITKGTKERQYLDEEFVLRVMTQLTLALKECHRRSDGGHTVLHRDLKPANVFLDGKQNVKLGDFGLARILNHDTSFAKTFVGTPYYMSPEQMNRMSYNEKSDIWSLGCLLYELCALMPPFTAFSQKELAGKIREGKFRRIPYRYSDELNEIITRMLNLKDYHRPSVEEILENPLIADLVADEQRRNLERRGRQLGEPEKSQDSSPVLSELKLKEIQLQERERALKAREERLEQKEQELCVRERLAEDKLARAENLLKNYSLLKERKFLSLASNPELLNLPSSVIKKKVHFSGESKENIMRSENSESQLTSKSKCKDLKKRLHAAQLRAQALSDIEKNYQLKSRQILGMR

A549 lung cancer cells [1] = experiment: MTT cell viability assay, A549; conditions: Homo sapiens, A549, read-out: Cell viability EC50, A549 (Figure 6A legend)
A549 lung cancer cells [2] = experiment: Wound-healing; conditions: 24 hr post-treatment, versus vehicle control
[3] = system: pAkt (Ser-473) in A549 cells; experiment: Western-blot analysis of pAkt; conditions: 24 h treatment, compared to DMSO

| SMILES | Loss of Nek2 inhibitory activity / increase of IC50 compared to V8 (hNek2 kinase) | Mode of Nek2 inhibition (hNek2 kinase) | Selectivity towards Nek2 kinase over the other tested kinases (hNek2 kinase; versus other tested kinases (Table 1)) | EC50 (A549 lung cancer cells [1]) [µM] | Cell migration in wound-healing assay (A549 lung cancer cells [2]) | Cellular levels of pAkt (Ser-473) [3] |
| --- | --- | --- | --- | --- | --- | --- |
| CS(=O)(=O)N1CCC2(CC1)NCC(=O)N2 [Compound V0-1] | > 13 fold |  |  |  |  |  |
| CN1CCC2(CC1)NCC(=O)N2 [Compound V0-3] | significant loss of potency |  |  |  |  |  |
| CS(=O)(=O)N1CCC2(CC1)N=C(c1ccc(Br)cc1)C(=O)N2 [Compound V8] |  | competitive with respect to ATP, reversible, and selective; also recorded: selective, reversible and is not time dependent; also recorded: competitive inhibitor for ATP binding | 9- to 13 fold | 22.7 ± 0.2 | migrated slower than the vehicle control; also recorded: Dose-dependent inhibiton of cell migration | reduced levels of pAkt (Ser-473) in a dose-dependent manner |
